Assays:
[1] = tested on: Human Immunodeficiency Virus type 1 (HIV) strain #237228 in MT2 cells; assay: Anti-HIV-1 antiviral activity in acutely infected MT2 cells (CPE and RT activity); format: cell-based; details: for IC100: Human immunodeficiency virus 1, 144 h, acute HIV-1 infection, day 6, concentration at which virus replication is inhibited (CPE negative or ±, >95% inhibition of RT activity); for antiviral index (Al), MT2 cells: only non-toxic concentrations used, 8640 min; for IC80: Human immunodeficiency virus 1, printed in the IC100 column with footnote (b) IC80
Description: (§1) The antiviral activity of representative compounds of the present invention has been determined at the Antivirals Laboratory, Fairfield Hospital, Fairfield, Victoria, Australia. In this test a stock solution of each compound was made in DMSO, then diluted in culture medium (RF 10) to 2× the final concentration required for test. The final concentration of DMSO was 1% or below. Approximately 250,000 continuous lymphocytes of human origin (MT2 cells) or 750,000 human peripheral blood lymphocytes (PBLs) were exposed to dilutions of each test compound, then immediately infected with Human Immunodeficiency Virus type 1 (HIV) strain #237228 (a clinical isolate obtained from a human source). The infectivity titers were expressed as tissue culture 50% infective dose (TCID50 per ml) with 1 TCID50 corresponding to the amount of supernatant required to infect 50% of the replicate cell cultures. The 250 and 200 TCID50 were used for MT2 and PBL cells respectively. The cell/drug/virus mixture was then incubated at 37° C./CO2 in a 24-well microtitre plate. Fresh amounts of the appropriate dilution of each drug were added to both MT2 and PBL cultures at day 3. At day 6, the extent of HIV-specific cytopathic effects (CPE) associated with each concentration of test compound in each of the cultures was rated according to the following scale:
(§2) 4+: 75-100% of cells showing 3+: good CPE
(§3) 3+: 50-75% of cells showing 2+: moderate CPE
(§4) 2+: 25-50% of cells showing 1+: low CPE
(§5) 1+: 5-25% of cells showing trace: minimal CPE
(§6) +/-: less than 5% CPE Negative: no CPE
(§7) The activity of the compounds at each concentration was also assessed by their ability to inhibit viron-associated reverse transcriptase (RT) activity in the culture supernates. At the time of rating of CPE, supernatant fluids from each well were removed and RT activity measured using a standard assay. CPE ratings of negative, ± (in MT2 cells) or trace (in PBLs), with greater than 95% inhibition of RT activity, was considered to represent IC100 (the concentration of compound at which the virus replication is inhibited). Control cultures included in each test were:
(§8) (a) HIV-infected cells in the absence of test compound.
(§9) (b) Uninfected cells in the absence of tested compound.
(§10) (c) Cell toxicity control consisting of uninfected cells treated with dilutions of test compound.
(§11) At the conclusion of each experiment, viable cells in these cultures, as determined by tryptan blue exclusion, were compared with the counts obtained in (b), above.

[2] = tested on: Human Immunodeficiency Virus type 1 (HIV) strain #237228 in human peripheral blood lymphocytes (PBLs); assay: Anti-HIV-1 antiviral activity in acutely infected peripheral blood lymphocytes (CPE and RT activity); format: cell-based, Human Immunodeficiency Virus type 1 (HIV); human cells; details: for IC100: Human immunodeficiency virus 1, 144 h, PBL cells, acute HIV-1 infection, day 6, concentration at which virus replication is inhibited (CPE negative or trace, >95% inhibition of RT activity); for antiviral index (Al), PBL cells: only non-toxic concentrations used, 8640 min
Description: as §1, §2, §3, §4, §5, §6, §7, §8, §9, §10, §11

HIV-1 protease = HIV-1 protease (Human immunodeficiency virus type 1 group M subtype B, UniProt P04585); assay: HIV-1 protease-inhibiting activity; format: biochemical; details: half-maximal inhibition of HIV-1 protease
Description: The HIV protease-inhibiting activity of representative compounds of the present invention has been tested by known methods (Brinkworth, R. I., et al., Biochem. Biophys. Res. Commun. 176, 241, (1991); McLeod, D. A., et al., Bioorganic & Medicinal Chemistry Letters (1991) 653-658).

| Structure (SMILES) | IC100 [1] [µM] | antiviral index (Al), MT2 cells [1] | IC100 [2] [µM] | antiviral index (Al), PBL cells [2] | IC80 [1] [nM] | IC50 ([1]; Human immunodeficiency virus 1, printed in the IC100 column with footnote (a) IC50) [nM] | IC50 (HIV-1 protease) [nM] |
| --- | --- | --- | --- | --- | --- | --- | --- |
| CC(C)(C)OC(=O)N1CCCCN1C[C@H](O)[C@H](Cc1ccccc1)NC(=O)[C@H](CC(N)=O)NC(=O)c1ccc2ccccc2n1 [Compound 19, 1-t-Butyloxycarbonyl-2-[(2S,3S)-2-hydroxy-3-(N-quinaldyl-L-asparaginyl)amino-4-phenylbutyl]hexahydropyridazine] | 1 | 10 | 0.1 | 200 | – | – | – |
| CC(CCc1ccccc1)N(C[C@@H](O)[C@H](Cc1ccccc1)NC(=O)[C@H](CC(N)=O)NC(=O)c1ccc2ccccc2n1)NC(=O)OC(C)(C)C (stereo partly shown) [Compound 12] | – | 10 | – | – | 1000 | – | – |
| CC(C)(C)OC(=O)N1CC2CCCCC2CN1CC(O)[C@H](Cc1ccccc1)NC(=O)OCc1ccccc1 (stereo partly drawn) [Compound 1, cis-1,6-3-t-Butoxycarbonyl-4-[(2RS,3S)-2-hydroxy-3-(phenylmethoxycarbonyl)amino-4-phenylbutyl]-3,4-diaza-bicyclo-[4.4.0]decane] | – | 1 | – | – | – | 10000 | – |
| CC(C)(C)OC(=O)N1Cc2ccccc2CN1CC(O)[C@H](Cc1ccccc1)NC(=O)[C@H](CC(N)=O)NC(=O)c1ccc2ccccc2n1 (stereo partly drawn) [Compound 11, 2-t-Butoxycarbonyl-3-[(2RS, 3S)-2-hydroxy-3-(N-quinaldyl-L-asparaginyl)amino-4-phenylbutyl]-1,2,3,4-tetrahydrophthalazine] | 1 | > 10 | – | – | – | – | 12.5 ± 3.2 |
| CC(C)N(C[C@H](O)[C@H](Cc1ccccc1)NC(=O)[C@H](CC(N)=O)NC(=O)c1ccc2ccccc2n1)NC(=O)C(C)(C)C [Compound 13, 1-Trimethylacetyl-2-[(2S,3S)-2-hydroxy-3-(N-quinaldyl-L-asparaginyl)amino-4-phenylbutyl]-2-isopropylhydrazine] | 1 | 50 | 1 | > 50 | – | – | – |
| CC(C)N(C[C@H](O)[C@H](Cc1ccccc1)NC(=O)[C@H](CC(N)=O)NC(=O)c1ccc2ccccc2n1)NC(=O)NC(C)(C)C [Compound 14, 1-(t-Butylamino)carbonyl-2-[(2S,3S)-2-hydroxy-3-(N-quinaldyl-L-asparaginyl)amino-4-phenylbutyl]-2-isopropylhydrazine] | 1 | 50 | 1 | > 50 | – | – | – |
| CC(C)[C@H](NC(=O)c1ccc2ccccc2n1)C(=O)N[C@@H](Cc1ccccc1)[C@H](O)CN(NC(=O)OC(C)(C)C)C(C)C [Compound 9, t-Butyl 3-Isopropyl-3-[(2R,3S)-2-hydroxy-3-(N-quinaldyl-L-valyl)amino-4-phenylbutyl]carbazate] | 5 | 4 | – | – | – | – | – |
| CC(C)(C)OC(=O)N1CC2CCCCC2CN1C[C@H](O)[C@H](Cc1ccccc1)NC(=O)[C@H](CC(N)=O)NC(=O)c1ccc2ccccc2n1 (single isomer, unassigned) [Compound 2b.A] | – | 100 | 0.01 | 1000 | 10 | – | – |
| CC(C)(C)OC(=O)NN(Cc1ccccc1)C[C@H](O)[C@H](Cc1ccccc1)NC(=O)[C@H](CC(N)=O)NC(=O)c1ccc2ccccc2n1 [Compound 16, t-Butyl 3-benzyl-3-[(2S,3S)-2-hydroxy-3-(N-quinaldyl-L-asparaginyl)amino-4-phenylbuty]carbazate] | 1 | 100 | 1 | 1 | – | – | – |
| CC(C)[C@H](NC(=O)c1ccc2ccccc2n1)C(=O)N[C@@H](Cc1ccccc1)C(O)CN1CC2CCCCC2CN1C(=O)OC(C)(C)C (stereo partly shown) [Compound 3] | 1 | 5 | 1 | 5 | – | – | – |
| C[C@@H](O)[C@H](NC(=O)c1ccc2ccccc2n1)C(=O)N[C@@H](Cc1ccccc1)C(O)CN1CC2CCCCC2CN1C(=O)OC(C)(C)C (stereo partly drawn) [Compound 5, cis-1,6-3-t-Butoxycarbonyl-4-[(2RS,3S)-2-hydroxy-3-(N-quinaldyl-L-threonyl)amino-4-phenylbutyl]-3,4-diaza-bicyclo[4.4.0]decane] | 1 | < 10 | 1 | < 10 | – | – | – |
| CC(C)(C)OC(=O)N1CC2CCCCC2CN1CC(O)[C@H](Cc1ccccc1)NC(=O)[C@H](CCC(N)=O)NC(=O)c1ccc2ccccc2n1 (stereo partly drawn) [Compound 4, cis-1,6-3-t-Butoxycarbonyl-4-[(2RS,3S)-2-hydroxy-3-(N-quinaldyl-L-glutaminyl)amino-4-phenylbutyl]-3,4-diaza-bicyclo[4.4.0]decane] | 1 | 10 | 1 | 10 | – | – | – |
| CC(C)N(C[C@H](O)[C@H](Cc1ccccc1)NC(=O)[C@H](CC(N)=O)NC(=O)c1ccccc1)NC(=O)OC(C)(C)C [Compound 18, t-Butyl 3-isopropyl-3-[(2S,3S)-2-hydroxy-3-(N-benzoyl-L-asparaginyl)amino-4-phenylbutyl]carbazate] | 1 | 10 | 1 | > 150 | – | – | – |
| CC(C)[C@H](NC(=O)OCc1ccccn1)C(=O)N[C@@H](Cc1ccccc1)C(O)CN1CC2CCCCC2CN1C(=O)OC(C)(C)C (stereo partly drawn) [Compound 6, cis-1,6-3-t-Butoxycarbonyl-4-[(2RS,3S)-2-hydroxy-3-[N-(2-pyridyl)methoxycarbonyl-L-valyl]amino-4-phenylbutyl]-3,4-diaza-bicyclo[4.4.0]decane] | 1 | < 5 | 1 | < 5 | – | – | – |
| CC(C)(C)OC(=O)N1CC2CCCCC2CN1C[C@H](O)[C@H](Cc1ccccc1)NC(=O)[C@H](CC(N)=O)NC(=O)c1ccc2ccccc2n1 (stereo partly drawn) [Compound 2b, cis-1,6-3-t-Butoxycarbonyl-4-[(2S, 3S)-2-hydroxy-3-(N-quinaldyl-L-asparaginyl)amino-4-phenylbutyl]-3,4-diaza-bicyclo[4.4.0]decane] | 0.1 | 50 | 0.1 | 100 | – | – | – |
| CC(C)N(C[C@H](O)[C@H](Cc1ccccc1)NC(=O)[C@H](CC(N)=O)NC(=O)c1ccccn1)NC(=O)OC(C)(C)C [Compound 15, t-Butyl 3-isopropyl-3-[(2S,3S)-2-hydroxy-3-(N-picolinyl-L-asparaginyl)amino-4-phenylbutyl]carbazate] | 1 | 100 | 1 | 200 | – | – | – |
| CC(C)[C@H](NC(=O)OCc1ccccn1)C(=O)N[C@@H](Cc1ccccc1)C(O)CN1C2CCC(C2)N1C(=O)OC(C)(C)C (stereo partly drawn) [Compound 10, 2-t-Butoxycarbonyl-3-[(2RS, 3S)-2-hydroxy-3-[N-(2-pyridyl)-methoxycarbonyl-L-valyl]amino-4-phenylbutyl]-2,3-diaza-bicyclo[2.2.1]-heptane] | 25 | 1 | – | – | – | – | 3300 ± 650 |
| CC(C)(C)OC(=O)N1CC2CCCCC2CN1C[C@H](O)[C@H](Cc1ccccc1)NC(=O)[C@H](CC#N)NC(=O)c1ccc2ccccc2n1 (stereo partly drawn) [Compound 20, cis-1,6-3-t-Butoxycarbonyl-4-[(2S,3S)-2-hydroxy-3-(N-quinaldyl-3-cyano-L-alanyl)amimo-4-phenylbutyl]-3,4-diaza-bicyclo[4.4.0]decane] | 1 | 10 | 1 | 10 | – | – | – |
